For 88 compounds, AC50 results are on record in PubChem BioAssay AID463199 (Broad Institute, 2010).

The structures appear in SMILES notation. The source made the active and inactive calls.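 How the source made its calls: active means AC50, the dose giving half-maximal effect, exceeds a fixed cutoff for a compound that rescues yeast growth under heat; inactive means the rest, inconclusive results apart.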

The AC50 is the midpoint of the concentration-response curve, whichever way the signal moves.

In this experiment the test system is S. cerevisiae Burl-1 ts mutant growth, BacTiter-Glo, 38.5C 24 h. The experiment can be described thus: growth induction of Burl-1 ts yeast mutant, dose response, counter-screen for SUMOylation pathway inhibitor project, whole organism, S. cerevisiae, luminescence (AID 463199). For orientation: A counterscreen serves to expose hits that act by an unwanted route or on another target.
`O=C1COc2ccc(C(=O)COC(=O)c3ncc(Cl)c(Cl)c3Cl)cc2N1`: the AC50 was > 42 µM (inactive).

For the compound `COC(=O)CN1C(=O)c2cccc3cccc1c23`, the AC50 was > 42 µM (inactive).

With `CCC1(CC)NC(=O)N(CC(=O)OCC(=O)NC(=O)c2ccccc2)C1=O`, the AC50 is > 42 µM (inactive).

As to `CCN(CC)C(=O)Cn1c(=O)n(CCCC(=O)NCc2ccccc2)c(=O)c2sccc21`, the AC50 was > 42 µM (inactive).

In the case of `O=C(CCCNC(=O)/C(=C/c1ccccc1F)NC(=O)c1ccccc1)OCc1ccccc1`, the AC50 was > 42 µM (inactive).

For the compound `COc1cccc(/C=C/C(=O)OCC(=O)Nc2ccc(Cl)cn2)c1`, the AC50 is > 42 µM (inactive).

In the case of `COc1cccc(-n2c(Cc3cc(=O)[nH]c(=O)[nH]3)nnc2SCc2cccnc2)c1`, the AC50 was > 42 µM (inactive).

With `CCC(Cc1ccccc1)NC(=O)C1CCN(c2nn3c(=O)cc(C)nc3s2)CC1` (stereo not drawn), the AC50 was > 42 µM (inactive).

As for `Cc1ccc2nc(NC(=O)CNS(=O)(=O)c3ccc(Br)s3)sc2c1`, the AC50 was > 42 µM (inactive).

As for `Nc1ccnc(=O)[nH]1`, the AC50 was > 42 µM (inactive).

As to `Cc1nnc(NC(=O)c2cccc(S(=O)(=O)N3CCCC3)c2)s1`, the AC50 is > 42 µM (inactive).

Turning to `CCn1nc(C(=O)OCc2cccc(S(=O)(=O)N(C)C)c2)c2ccccc2c1=O`, the AC50 is > 42 µM (inactive).

As to `CCc1cc2c(=O)c(-c3ccc(F)cc3)c(C(F)(F)F)oc2cc1OCC(=O)O`, the AC50 was > 42 µM (inactive).

Take `CC(C)(C)C(=O)NC1CCN(CC(=O)Nc2ccc3c(c2)OCO3)CC1`: the AC50 was > 42 µM (inactive).

Regarding `Cc1ccc(NC(=O)CN(C)C(=O)c2cccc(Br)c2)cc1`, the AC50 was > 42 µM (inactive).

With `Cc1ccc(S(=O)(=O)/N=C(/Nc2ccc([N+](=O)[O-])cc2[N+](=O)[O-])c2ccccc2)cc1`, the AC50 is > 42 µM (inactive).

For the compound `CN(C)C(=O)c1cc(C(=O)c2ccc(C(F)(F)F)cc2F)c[nH]1`, the AC50 was > 42 µM (inactive).

For the compound `O=C(Nc1ccc(OC(F)(F)F)cc1)c1ccc2ccccc2n1`, the AC50 was > 42 µM (inactive).

`O=C(CCSc1nnc(-c2ccncc2)o1)Nc1ccc(Cl)cc1`: the AC50 was > 42 µM (inactive).

On to `CC(C)(C)NC(=O)C1Cc2ccccc2CN1S(=O)(=O)c1ccc(F)cc1` (stereo not drawn), for which the AC50 is > 42 µM (inactive).

`Cc1cc(N2CCN(C)CC2)nc2ccc(NC(=S)N3CCC4(CC3)OCCO4)cc12`: the AC50 was > 42 µM (inactive).

As to `O=c1[nH]c(CN2CCN(CCO)CC2)nc2ccccc12`, the AC50 was > 42 µM (inactive).

For `CC1C(=O)CC(c2ccccc2)NC1c1ccccc1` (stereo not drawn), the AC50 was > 42 µM (inactive).

Regarding `COc1ccc(NS(=O)(=O)c2cccc(C(=O)NCCCn3ccnc3)c2)cc1`, the AC50 is > 42 µM (inactive).

For `C/C(=N\N=C(c1ccccc1)c1ccccc1)c1ccco1`, the AC50 was > 42 µM (inactive).

With `c1ccc(-c2nc(NCc3ccco3)c3ccccc3n2)nc1`, the AC50 is > 42 µM (inactive).

Consider `CCN(CC)c1ccc2c(C)c(CN3CCOCC3)c(=O)oc2c1`, for which the AC50 was > 42 µM (inactive).

`COc1ccccc1N1C(=O)c2ccccc2NC1C(OC)OC` (stereo not drawn): the AC50 is > 42 µM (inactive).

For `CC1(C)NC(=O)N(CCCOc2ccccc2Br)C1=O`, the AC50 was > 42 µM (inactive).

On to `Cc1cc(C(F)(F)F)nc(SCC(=O)Nc2cc(C)on2)n1`, for which the AC50 is > 42 µM (inactive).

In the case of `CCOC(=O)Cn1c(=O)oc2cc(S(=O)(=O)NC(C)(C)CC)ccc21`, the AC50 was > 42 µM (inactive).

For the compound `CC(C)NC(=O)c1ccccc1-c1ccccc1`, the AC50 was > 42 µM (inactive).

Turning to `CCCc1nnc(NC(=O)c2cn(CC)c3cc(N4CCN(C)CC4)c(F)cc3c2=O)s1`, the AC50 was > 21 µM (inactive).

Regarding `Cc1cccc2nc(COc3ccc4ccccc4c3Br)cn12`, the AC50 is > 42 µM (inactive).

With `CCNC(=O)C1CC(=O)N(Cc2ccc3c(c2)OCO3)C(=Nc2ccc(F)cc2)S1` (stereo not drawn), the AC50 is > 42 µM (inactive).

As for `Cc1ccc(NC(=O)CCS(=O)(=O)c2ccc3nc(C)sc3c2)cc1`, the AC50 was > 42 µM (inactive).

On to `CC(=O)c1ccc(Nc2cc(C)nc3ccccc23)cc1`, for which the AC50 was > 42 µM (inactive).

In the case of `Cc1ccc(S(=O)(=O)Oc2ccc(/C=C3\N=C(c4cccc(C)c4)OC3=O)cc2)cc1`, the AC50 was > 42 µM (inactive).

On to `CCC(=O)Nc1nc(CC(=O)Nc2ccccc2OC)cs1`, for which the AC50 is > 42 µM (inactive).

Consider `CCCC(=O)N(CCN1CCOCC1)c1nc2ccc(OCC)cc2s1`, for which the AC50 is > 42 µM (inactive).

As for `Cc1nnsc1C(=O)N1CCC(CO)(Cc2ccccc2Cl)CC1`, the AC50 was > 42 µM (inactive).

On to `COc1ccc(CCN2CC(C(=O)N(C)CC(=O)Nc3cccc(F)c3)CC2=O)cc1OC` (stereo not drawn), for which the AC50 was > 42 µM (inactive).

For the compound `COC(=O)C(CC(C)C)NC(=O)CNC(=O)c1ccccc1C` (stereo not drawn), the AC50 was > 42 µM (inactive).

On to `CCn1c(-c2ccccc2)c(C(=O)CC#N)c2ccccc21`, for which the AC50 is > 42 µM (inactive).

With `Cc1sc2ncnc(N3CCC(C(=O)NNC(=O)COc4ccccc4F)CC3)c2c1C`, the AC50 is > 42 µM (inactive).

Take `Cc1cc(Oc2cc(NN3CCCCC3)c([N+](=O)[O-])cc2[N+](=O)[O-])ccc1[N+](=O)[O-]`: the AC50 is > 42 µM (inactive).

As for `CCN(Cc1ccccc1)Cc1ccc(OCc2ccccc2)c(OC)c1`, the AC50 was > 42 µM (inactive).

For `COC(=O)CN(C(=S)Nc1ccc(F)cc1)C1CC(=O)N(c2ccccc2)C1=O` (stereo not drawn), the AC50 is > 42 µM (inactive).

In the case of `COCCn1c(SCC(=O)Nc2nc3ccccc3s2)nnc1-c1ccoc1C`, the AC50 is > 42 µM (inactive).

Consider `N#Cc1cc2c(nc1SCc1cccnc1)CCC2`, for which the AC50 was > 42 µM (inactive).

For the compound `O=C(CSc1cccc[n+]1[O-])N1CCc2ccccc21`, the AC50 was > 42 µM (inactive).

With `CC(C)C(=O)Nc1ccc(NC(=S)NC(=O)c2ccccc2F)cc1`, the AC50 was > 42 µM (inactive).

Take `CS(=O)(=O)N1CCCC(C(=O)NCc2ccco2)C1` (stereo not drawn): the AC50 was > 42 µM (inactive).

For the compound `COc1ccc2nc(NC(=O)c3cc(S(=O)(=O)N4CCOCC4)ccc3C)sc2c1`, the AC50 was > 42 µM (inactive).

In the case of `O=C(C1CCCN(S(=O)(=O)c2cnc[nH]2)C1)N1CCN(c2ccc(Cl)cc2)CC1` (stereo not drawn), the AC50 is > 42 µM (inactive).

`O=C(CSc1nc(-c2ccccc2)cc(=O)[nH]1)Nc1ccc(Br)cc1`: the AC50 was > 42 µM (inactive).

Take `CCNC(=O)NC1c2ccccc2CSc2ccccc21` (stereo not drawn): the AC50 is > 42 µM (inactive).

Consider `CC(C)N=C(NS(=O)(=O)NC(=O)c1ccccc1)c1ccccc1`, for which the AC50 was > 42 µM (inactive).

For the compound `COc1ccc(-c2cc(=O)c3cc(O)ccc3o2)cc1`, the AC50 is > 42 µM (inactive).

Turning to `O=C(NCCCn1ccnc1)c1ccc(Cl)cc1`, the AC50 was > 42 µM (inactive).

Regarding `COc1cc(NC(=O)CCN2CCN(Cc3ccccc3)CC2)cc(OC)c1`, the AC50 was > 42 µM (inactive).

`N#CC(C#N)=C1C=CC=CN1/C(=C\c1ccccc1Cl)C(=O)c1ccccc1`: the AC50 is > 42 µM (inactive).

As for `CCC(c1nc2ccccc2c(=O)n1-c1nc2ccccc2s1)N1C(=O)c2ccccc2C1=O` (stereo not drawn), the AC50 was > 42 µM (inactive).

Turning to `COC(=O)CNC(=O)CSc1ccccn1`, the AC50 is > 42 µM (inactive).

Take `COCCCNC(=O)c1cc2cc([N+](=O)[O-])cc(OC)c2oc1=O`: the AC50 was > 42 µM (inactive).

`COC(=O)CCCC(=O)NCC1(N(C)Cc2ccccc2)Cc2ccccc2C1`: the AC50 was > 42 µM (inactive).

Turning to `O=C(Nc1ccc2c(c1)CCCN2C(=O)c1cccs1)c1cccc(F)c1`, the AC50 is > 42 µM (inactive).

Regarding `NC(=O)NC(=O)CSc1nc(C2CCCCC2)n(-c2ccccc2)n1`, the AC50 was > 42 µM (inactive).

For the compound `COc1ccc(CCC(=O)Nc2ccc3c(c2)OCO3)cc1`, the AC50 was > 42 µM (inactive).

Consider `COc1ccc2[nH]cc(CCNS(=O)(=O)c3ccc(C)cc3)c2c1`, for which the AC50 is > 42 µM (inactive).

In the case of `COc1ccccc1N(CC(=O)NCC1CCCO1)C(=O)CCC(=O)Nc1cc(C)on1` (stereo not drawn), the AC50 was > 42 µM (inactive).

Take `CC1(C)CC(=O)C(CC2CCCCC2=O)C(=O)C1` (stereo not drawn): the AC50 is > 42 µM (inactive).

In the case of `COc1cc2c(cc1OC)CN(S(=O)(=O)c1cccc(F)c1)CC2`, the AC50 was > 42 µM (inactive).

Turning to `CCOc1ccc(N(CC)S(=O)(=O)c2cccc3nsnc23)cc1`, the AC50 was > 42 µM (inactive).

With `CC(C)COc1ccc(C(=O)Nc2ccc([N+](=O)[O-])cc2)cc1`, the AC50 is > 42 µM (inactive).

`CCOC(=O)C1=C(C)NC(=O)CC1c1cc2c(cc1[N+](=O)[O-])OCO2` (stereo not drawn): the AC50 was 22.3 µM.

On to `CC(C)C(CC(=O)NCc1ccco1)c1ccco1` (stereo not drawn), for which the AC50 is > 42 µM (inactive).

For the compound `Cn1c(=NC(=O)COc2ccccc2)sc2cc(F)cc(F)c21`, the AC50 was > 42 µM (inactive).

In the case of `O=C(COC(=O)c1cccc(Br)c1)Nc1ccc2[nH]c(=O)[nH]c2c1`, the AC50 is > 42 µM (inactive).

`COC(=O)N/N=C/c1ccc(-c2ccc(Cl)cc2Cl)o1`: the AC50 is > 42 µM (inactive).

On to `COc1ccc(C)cc1NC(=S)N1CCN(c2ccccn2)CC1`, for which the AC50 is > 42 µM (inactive).

As for `COC(=O)C1CCN(S(=O)(=O)Cc2ccccc2)CC1`, the AC50 is > 42 µM (inactive).

Regarding `CCC(C)c1ccc(S(=O)(=O)N2CCN(C(=O)COc3ccc4c(C)cc(=O)oc4c3)CC2)cc1` (stereo not drawn), the AC50 is > 42 µM (inactive).

With `Cc1ccc(NS(=O)(=O)c2c(C)[nH]c(C)c2C(=O)N2CCCCC2)c(Cl)c1`, the AC50 is > 42 µM (inactive).

Regarding `O=C1CCCN1CCC1CCN(C2CC(=O)N(c3ccc(Cl)cc3)C2=O)CC1` (stereo not drawn), the AC50 was > 42 µM (inactive).

On to `CCCn1c(=O)c2ccccc2n2c(SCC(=O)N3CCc4ccccc4C3)nnc12`, for which the AC50 is > 42 µM (inactive).

For the compound `N[C@@H](Cc1ccc(O)c(I)c1)C(=O)O`, the AC50 was > 42 µM (inactive).

As to `O=C(NCc1ccccn1)C1CC(c2ccc(Cl)c(Cl)c2)=NO1` (stereo not drawn), the AC50 is > 42 µM (inactive).
